Results published in US11396497B2, “Proteasome inhibitors” (New Mexico Tech University Research Park Corporation, priority 2018, dated 2022).
Where two headings read alike, the source gives them in different places.

Assays:
[1] = molecular target: T1, chymotrypsin-like activity of the 26S proteasome (Homo sapiens, UniProt P28074); assay: Proteasome assay, chymotrypsin-like (ChT-L) activity, Suc-LLVY-AMC, Jurkat cell lysate; format: biochemical; conditions: ± S.D., read-out: Proteasome Inhibition ChT-like IC50
T1 construct: endogenous in cells; host or cells: Jurkat (ATCC TIB-152, E6-1 clone) cell lysate
T1 sequence (P28074 60-263): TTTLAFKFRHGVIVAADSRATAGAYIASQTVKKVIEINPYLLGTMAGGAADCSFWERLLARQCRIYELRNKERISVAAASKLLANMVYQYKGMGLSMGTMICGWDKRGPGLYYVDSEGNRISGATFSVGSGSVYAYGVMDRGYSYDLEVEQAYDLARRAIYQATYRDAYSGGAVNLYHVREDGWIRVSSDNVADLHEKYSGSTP
Description: (§1) The lysate was stored at −80° C. until the sample was used for the proteasome assay.
(§2) The compounds were diluted with lysis buffer; 10 μL of the compound-containing solution was added to the test wells at ten times the final concentration. […] The results are reported as the average of at least 3 technical replicates of IC50 values for proteasome inhibition.

[2] = molecular target: T2, trypsin-like activity of the 26S proteasome (Homo sapiens, UniProt Q99436); assay: Proteasome assay, trypsin-like (T-L) activity, SUC-RLR-AMC, Jurkat cell lysate; format: biochemical
T2 construct: endogenous in cells; host or cells: Jurkat (ATCC TIB-152, E6-1 clone) cell lysate
T2 sequence (Q99436 44-277): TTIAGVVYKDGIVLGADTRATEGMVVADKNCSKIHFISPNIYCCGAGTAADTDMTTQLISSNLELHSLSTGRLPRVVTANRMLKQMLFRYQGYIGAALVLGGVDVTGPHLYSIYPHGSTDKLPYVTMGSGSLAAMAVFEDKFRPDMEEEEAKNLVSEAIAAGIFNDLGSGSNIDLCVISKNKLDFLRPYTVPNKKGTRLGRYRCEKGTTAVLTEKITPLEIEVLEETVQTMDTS
Description: as §1, §2

[3] = molecular target: T3, yeast proteasome yβ1 subunit (Saccharomyces cerevisiae, UniProt P25043+P38624); assay: Subunit selectivity, purified yeast proteasome yβ1; format: biochemical; conditions: 8 μg/mL purified yCP; ± SD; read-out: yβ1 IC50
T3 construct: measured using 8 μg/mL of purified yCP or iCP
Description: as §2
(§3) Values and standard deviations were calculated from an assay performed in biological triplicate.

[4] = molecular target: T4, yeast proteasome yβ2 subunit (Saccharomyces cerevisiae, UniProt P25043+P25451); assay: Subunit selectivity, purified yeast proteasome yβ2; format: biochemical; conditions: 8 μg/mL purified yCP; ± SD; read-out: yβ2 IC50
T4 construct: measured using 8 μg/mL of purified yCP or iCP
Description: as §2, §3

[5] = molecular target: T5, yeast proteasome yβ5 subunit (Saccharomyces cerevisiae, UniProt P23724+P30656); assay: Subunit selectivity, purified yeast proteasome yβ5; format: biochemical; conditions: 8 μg/mL purified yCP; ± SD; read-out: yβ5 IC50
T5 construct: measured using 8 μg/mL of purified yCP or iCP
Description: as §2, §3

[6] = molecular target: T6, immunoproteasome iβ5 subunit (Homo sapiens, UniProt P20618+P28062); assay: Subunit selectivity, purified immunoproteasome iβ5; format: biochemical
T6 construct: purchased Enzo Life Sciences
Description: as §2, §3

[7] = test system: ubiquitinated proteins in MCF7 cells; assay: Western blot of ubiquitinated proteins; format: cell-based, human
Description: The cells were incubated for 9.5 hrs at 37° C. and 5% CO2. After washing with PBS twice, cells were scraped, pelleted and lysed with CytoBuster™ Protein Extraction Reagent \ containing 10 μM compound 8, 10 μM Na3VO4, 0.017 mg/mL Aprotinin, 1 mM PMSF, and 1% Protease Inhibitor Cocktail. Thereafter 30 μg of protein in sample buffer (50 mM Tris-HCl, 2% SDS, 10% Glycerol, 1% β-mercaptoethanol, 12.5 mM EDTA, 0.02% Bromophenol Blue, pH 6.8) that had been boiled at 90° C. for 5 min, was electrophoresed using 6/8% SDS-PAGE, and the protein transferred to a […] PVDF membrane using a BioRad Trans-Blot® SD at 15 V for 17 minutes. The membrane was blocked with 1× casein buffer (Diluted 1:10 in water from casein blocking buffer 10×), and probed with either the polyclonal rabbit anti β-Actin (1:500) or the polyclonal rabbit anti-ubiquitin antibody (1:300), and stained with goat anti-rabbit IgG (H+L) HRP conjugate (1:3000) secondary antibodies. Antibody-recognized bands were visualized by a standard horseradish peroxidase chemiluminescent assay with an ECL kit.

Jurkat cells [8] = assay: Apoptosis assay (Annexin V-FITC, flow cytometry); format: cell-based, human
Description: Apoptosis assay: 1 mL of Jurkat cells, at a density of 500,000 cells per milliliter, was added to 12 wells of a 24 well microtiter plate. Cells were treated immediately using a serial dilution of the synthesized proteasome inhibitors, the benzyl ester of Cystargolide B and the belactosin-cystargolide hybrid molecule. 10 μM Paclitaxel and 0.2 μg/mL Doxorubicin hydrochloride were used as positive apoptosis controls and non-treated cells were used as a negative control. The cells were then incubated for 24 h at 37° C. and 5% CO2. The following day, Annexin V-FITC conjugate was used to assay for the expression of phosphatidyl serine on the […] of the cellular membrane. The cells were briefly pelleted, aspirated, and resuspended in 300 μL of a reaction mixture containing 0.2 μL/mL of the Annexin V FITC solution, 2 mM CaCl2 to enable binding, and 2 μg/mL propidium iodide as an indicator of cell permeability. Each sample was incubated at 37° C. for 20 minutes, and then analyzed by flow cytometry. Single, whole cells were selected based on the forward and the side-scatter. With an excitation of 488 nm Annexin V-FITC binding was identified using FL1 533 nm emission. Propidium iodide staining was selected based on FL2 585 nm emission. […] Measurements were taken in biological triplicate for each sample, and the results were confirmed in technical triplicate.

Jurkat cells [9] = assay: Cell cycle assay (flow cytometry); format: cell-based, human
Description: Vybrant® DyeCycle™ Orange Stain was used for the cell cycle assay. The amount of fluorescence of DNA was used as a relative measure of a cell's stage in the cell cycle. 500,000 Jurkat cells were added to wells on a 24 well microtiter plate in 1 mL of supplemented RPMI media. The cells were then treated with Compound 1 (TABLE 2). Using the cells treated for 12 and 24 hours, stained DNA fluorescence was measured via flow cytometry. The cells were taken from each well, pelleted briefly, aspirated, resuspended in 300 μL of 2 μL/mL Vybrant® DyeCycle™ Orange Stain, incubated at 37° C. for 15 minutes, and analyzed by flow cytometry. Selecting whole cells based on forward and side scatter, stained DNA fluorescence was excited at 488 nm and measured at an emission wavelength of 585 nm, using amount of fluorescence as a means of distinguishing between populations of cells. Populations were identified as G1 for the peak associated with the lowest amount of fluorescence, S phase for increased fluorescence appearing as a shoulder off of the G1 peak, and G2/M for approximately 2 times the fluorescence as the G1 peak. Measurements were taken in biological triplicate and confirmed in technical triplicate.

MCF7 cells = assay: MTT assay cytotoxicity MCF7; conditions: Homo sapiens, MCF7, 48 h, read-out: Cytotoxicity MCF7 IC50
Description: (§4) The cells were incubated at 37° C. in a humidified atmosphere with 5% CO2.
(§5) 100 μL of cells were added to each well of a 96 well microtiter plate at a concentration of 4×10^4 cells/mL and incubated overnight to allow proper adhesion. (RPMI 8226 cells were plated at 4×10^5 cells/mL). The cells were treated with the panel of test compounds at a series of concentrations, along with vehicle control DMSO and untreated cells as controls. After 48 h incubation, 20 μL of MTT reagent (3-(4,5-dimethylthiazol-2-yl)-2,5-diphenyltetrazolium bromide) in PBS (5 mg/mL) was added to each well of the plates. The plate was incubated for 2 h at 37° C. For adherent cell lines, the media was removed from each well of the plate and the resulting formazan crystals dissolved in 100 μL of DMSO. For RPMI 8226 cells, 200 ul of DMF/SDS mix (50% DMF. 10% w/v SDS pH<4) was used to solubilize the formazan crystals. Optical density (OD) at 490 nm was measured using a microplate reader. Cells treated with 1 μM phenyl arsine oxide (PAO) served as a positive cell-killing control. Technical replicates of these assays were performed in biological quadruplicate, and the three best values were used for analysis in order to eliminate outliers. Data presented are the average IC50 value calculated from at least 3 technical replicates with the corresponding standard deviation.

RPMI 8226 cells = assay: MTT assay cytotoxicity RPMI 8226; conditions: Homo sapiens, RPMI-8226, 48 h, read-out: Cytotoxicity RPMI 8226 IC50
Description: as §4, §5

MDA-MB-231 cells = assay: MTT assay cytotoxicity MDA-MB-231; conditions: Homo sapiens, MDA-MB-231, 48 h, read-out: Cytotoxicity MDA-MB-231 IC50
Description: as §4, §5

[10] = molecular target: T7, ChT-L activity of 26S proteasomes in intact MCF-7 cells (Homo sapiens, UniProt P28074); assay: Cell infiltration of PIs: proteasome inhibition in intact MCF7 cells; format: cell-based; conditions: intact versus lysed MCF-7 cells, 1 h
T7 construct: endogenous in cells; host or cells: MCF7 cells (treated intact, then lysed)
T7 sequence (P28074 60-263): T1 sequence (P28074 60-263)
Description: 100 μL MCF7 cells at a concentration of 500,000 cells/mL were added to a 96 well microtiter plate and incubated overnight at 37° C. and 5% CO2 to allow cells to adhere at 100% confluency. The cells were treated and then incubated for at 37° C. and 5% CO2 for 1 hour as a standard time to allow for drug infiltration. […] The plate was rocked on ice for 1 hr and then 90 μL of cell lysate was transferred to a black 96 well microtiter plate. 10 μL of lysis buffer was added to the top of all wells containing treated cells and one set of control wells. 10 μL of 1 mM of compound 8 was added to the second set of control wells as a positive control for proteasome inhibition. The plate was then incubated at 37° C. for 15 minutes to allow for control drug binding. Chymotrypsin-like activity was then measured by adding 10 μL of 100 μM Suc-LLVY-AMC in lysis buffer to each well and then incubating for 1 h at 37° C. […] Standard deviation for cell infiltration was calculated by propagating the error from the two IC50 values.
The difference between proteasome inhibition within intact versus lysed cells was evaluated as a representative measure of PIs ability to infiltrate cells and access intracellular proteasomes. […] Assays were performed in biological triplicate, and the data points are reported with the corresponding standard deviations. […]

[11] = test system: cancer cells (MCF7, MDA-MB-231, RPMI 8226); assay: MTT cytotoxicity, cell line not given
[12] = Table 2, P1 analogues, ± S.D., read-out: Proteasome Inhibition T-L-like IC50

cellular infiltration / ability to inhibit intracellular proteasomes (in words) [10]	SMILES	IC50 ([1]; Table 2, P1 analogues) [nM]	IC50 [2, 12] [nM]	IC50 [3] [nM]	IC50 [4] [nM]	IC50 [5] [nM]	IC50 [6] [nM]	accumulation of ubiquitinated proteins [7]	induction of apoptosis (Jurkat cells [8])	cell cycle arrest (Jurkat cells [9])	IC50 (MCF7 cells) [nM]	IC50 (RPMI 8226 cells) [nM]	IC50 (MDA-MB-231 cells) [nM]	IC50 ([1]; Table 3, P2/P3 analogues) [nM]	IC50 [2] [nM]	concentration up to which complete cytotoxicity was not achieved [11] [µM]
	CC(C)[C@H](NC(=O)[C@@H]1OC(=O)[C@H]1C(C)C)C(=O)N[C@H](C(=O)OCc1ccccc1)C(C)C [Compound 1]	8.9 ± 6.2	1950 ± 901	4180 ± 438	14600 ± 910	37.2 ± 4.5	44.7 ± 12.8	accumulation of ubiquitinated proteins	induction of apoptosis	cell cycle arrest in the G2/M phase	8090 ± 4270	1310 ± 745	2790 ± 464			
lowest performance	CC(C)[C@H](NC(=O)[C@@H]1OC(=O)[C@H]1C1CC1)C(=O)N[C@H](C(=O)OCc1ccccc1)C(C)C [Compound 9a, Benzyl ((2R,3S)-3-cyclopropyl-4-oxooxetane-2-carbonyl)-L-valyl-L-valinate]	12.2 ± 5.6	2480 ± 433								> 100000	72000 ± 13800	> 100000			
	CC[C@H](C)[C@@H]1C(=O)O[C@H]1C(=O)NCC(=O)N[C@H](C(=O)OCc1ccccc1)C(C)C [Compound 10a, Benzyl ((2R,3S)-3-((S)-sec-butyl)-4-oxooxetane-2-carbonyl)glycyl-L-valinate]										~4000	840 ± 429	952 ± 262	3.8 ± 1.4	256 ± 72	> 100
